The subject of assay [1] is collagen induced arthritis. In words: Preventive effect against collagen induced arthritis in mice (Example 3). The note with it: preventive regimen. The class given is in vivo, DBA/1J female mice. The procedure:
(§1) Five-week old DBA/1J female mice were imported from Charles River Japan and allowed to adapt in an animal room for two weeks before using them in the experiments at the age of 7 weeks (20-25 g).
(§2) Isolated and quantified type II collagen of chicken (Sigma Chemical Co., St. Louis, Mo., U.S.A.) was solubilized in 0.1 N acetic acid at a concentration of 2 mg/ml. The solution was mixed with an equal amount of a complete Freund's adjuvant at 4° C. to form a suspension. One hundred microliters of this mixture was injected […] around the origin of the tail vein and further inoculated at 3 and 6 weeks after the first injection (D. E. Trentham et. al., Autoimmunity to Type II collagen: An Experimental Model of Arthritis, J. Exp. Med. 146; 857-868 (1977)). Arthritis was induced from the 4th week after the first injection.
(§3) Clinical incidence of arthritis % (C.I.A) and arthritis index were examined. C.I.A. was expressed as the percentage of mice that have arthritic symptoms among the total mice. The degree of inflammation expressed as the arthritis index was categorized from 0 to 3 by 2 researchers every week as below. Pictures of the feet of some mice were taken 6 weeks after the collagen administration.
(§4) 1: One or two toes were swollen with suffusion or had minimal swelling
(§5) 2: Definite suffusion or local swelling in many toes
(§6) 3: Observation of severe edema and swelling up to the knee and restricted use of the feet.
(§7) The arthritis index was calculated for 4 feet (2 hind feet and 2 fore feet) giving the maximum value of 12. An index of 6-8 was considered severe since collagen induced arthritis invades in general mainly the hind feet (Korea J. Immunol. 18, 437, 1996; J. Immunol. 151, 6546,1993).
As a test group to examine the preventive effect, 1 mg/kg body weight of histone H1 was administered into 10 mice via intraperitoneal injection 2 times every week from the third week (before arthritis induction) up to 10th week after the first injection. Histone H1 was diluted at a concentration of 5 mg/ml in PBS. As a comparison group, 1 mg/kg body weight of dexamethasone, a currently available rheumatoid arthritis drug, was administered into 10 mice via intraperitoneal injection 2 times every week from the third week (before arthritis induction) up to 10th week after the first injection. As a control group, 300 μl of PBS was administered into 20 mice 2 times every week from the third week up to 10th week after the first collagen injection.

For assay [2], the system named is collagen induced arthritis. In words: Treatment effect on collagen induced arthritis in mice, histone H1 (Example 4). In kind it is in vivo, DBA/1J female mice. Details: key to arthritis index: sum of 0–3 per-foot scores over 4 feet, max 12. As to the method:
as §1, §2, §3, §4, §5, §6, §7
As a test group to examine the treatment effect, 1 mg/kg body weight of histone H1 was administered into 10 mice via intraperitoneal injection 2 times every week from the 6th week (after arthritis induction) up to the 10th week. Histone H1 was diluted at a concentration of 5 mg/ml in PBS. As a comparison group, 1 mg/kg body weight of dexamethasone, a currently available rheumatoid arthritis drug, was administered into 10 mice via an intraperitoneal injection 2 times every week from the 6th week (after arthritis induction) up to the 10th week. Identical control group was used as in EXAMPLE 1.

The test system of assay [3] is anti-collagen antibody (Type II collagen). In words: Serum anti-collagen antibody level by ELISA. The class given is in vivo, mice. The note with it: serum at 10th week. The procedure:
At the 10th week the serum was isolated from the blood obtained through a heart puncture. The serum was kept at −80° C. and thawed immediately before the experiment to measure the anti-collagen antibody level by performing an ELISA (D. E. Tretham & R. A. Dynesius-Trentham, J. Immunol. 130; 2689-2692 (1983)). Type II collagen (25 μg/ml) in 0.1 M PBS was placed in each well of a 96-well polystyrene microplate (Nunc, Denmark) and was incubated at 4° C. for 8 hours. After the incubation, the wells were washed several times with a PBS-0.05% Tween 20 solution. To prevent non-specific immune reactions, PBS-0.5% ovalbumin was added in each well and incubated for an hour at room temperature and subsequently washed again with the PBS-0.05% Tween 20 solution. The serum, diluted 500 times with a buffer solution was added in each well and reacted for 2 hours at room temperature and further washed with the PBS-0.05% Tween 20 solution. After reacting each well with alkaline phosphatase conjugated goat anti-mouse IgA and IgM for 2 hours and adding 1 mg/ml of p-nitrophenyl phosphate, the absorbance at 450 nm was measured. The anti-collagen antibody level was measured twice for each sample and averaged.
The anti-collagen antibody level was measured to estimate the immune reaction as in EXAMPLE 3. […]

The subject of assay [4] is collagen induced arthritis. Description: Pathological observation of leg joints by H-E staining. The class given is in vivo, mice. The note with it: treatment regimen; 10 weeks after antigen inoculation. An excerpt: Mice were sacrificed by blood evacuation from the heart. The legs were cut immediately after the sacrifice and fixed in formalin. After the decalcification, legs were stained by hematoxylin-Eosin.

The test system of assay [5] is collagen induced arthritis. Description: Treatment effect on collagen induced arthritis in mice, histone H2A and its active fragment (Example 7). In kind it is in vivo. As to the method:
as §1, §2, §3, §4, §5, §6, §7
As a test group to examine the treatment effect, 5 mice for histone H2A and 7mice for histone H2A active fragment were used. 1 mg/kg body weight of histone H2A or histone H2A active fragment was administered into the mice via intraperitoneal injection 2 times every week from the 6th week (after arthritis induction) up to the 10th week. Histone H2A or histone H2A active fragment was diluted at a concentration of 5 mg/ml in PBS. As a comparison group, 1 mg/kg body weight of dexamethasone, a currently available rheumatoid arthritis drug, was administered into 7 mice via an intraperitoneal injection 2 times every week from the 6th week (after arthritis induction) up to the 10th week. As a control group, […] of PBS was administered into 7 mice every week from the third week up to 10th week after the first collagen injection.

Where [6] appears, read: test group at 5th week, before administration (baseline).
Where [7] appears, read: treatment regimen from 6th week, 7th week.
[8] abbreviates: treatment regimen from 6th week, 8th week.
The mark [9] stands for this setting: treatment regimen from 6th week, 10th week.

Consider Histone H1, for which the “week at which arthritis was first observed after the inoculation” value in assay [1] (1 mg/kg i.p.) is reported as 7 week. In addition, the arthritis induction entry in assay [1] (1 mg/kg i.p. 2 times every week from third week, up to the 6th week) was “complete prevention of arthritis induction”. Also, the “C.I.A. (clinical incidence of arthritis)” value was 60% in assay [1] (1 mg/kg i.p., 7th week); 60% in assay [1] (1 mg/kg i.p., 8th week); 80% in assay [1] (1 mg/kg i.p., 10th week); 12.5% in assay [2] (setting [7]); 14.3% in assay [2] (setting [8]); 14.3% in assay [2] (setting [9]). For the same compound, in assay [2] (treatment regimen, 1 mg/kg i.p. 2 times every week from 6th week, 6th week), the “C.I.A. (clinical incidence of arthritis)” value came to 37.5%. In addition, the “arthritis index relative to the control group” value in assay [1] (7th week) is listed as 60%. Also, the arthritis index in assay [1] (mice that had arthritis, 10th week) was found to be 2.25±1.26; in assay [2] (setting [6]), 3.33±0.58; in assay [2] (treatment regimen from 6th week, 6th week), 2.67±0.58; in assay [2] (setting [7]), 1.00; in assay [2] (setting [8]) it was 2; in assay [2] (setting [9]) it was 1.00. Also, the “edema of fore feet (pictures)” value in assay [2] (6th week after administration of the collagen) was “improvement of edema was observed”. The “fraction of the induced arthritis completely cured” value in assay [2] (treatment regimen from 6th week, after the 7th week) is recorded as “⅔”. In addition, the “anti-collagen antibody level (absorbance at 450 nm)” value in assay [3] (preventive regimen, diluted 500 times) is given as 0.588±.214; in assay [3] (treatment regimen (from 6th week)), 0.540±170. Moreover, in assay [4], the “formation of pannus, erosion of cartilage or manifestation of inflammatory cells (H-E staining)” value was “not observed”.

Turning to `C[C@@H]1C[C@H]2[C@@H]3CCC4=CC(=O)C=C[C@]4(C)[C@@]3(F)[C@@H](O)C[C@]2(C)[C@@]1(O)C(=O)CO` [dexamethasone, reference compound], the arthritis index stood at 2.00 in assay [1] (5 weeks); 1.50 in assay [1] (6 weeks); 2.67 in assay [2] (setting [7]); 1.67 in assay [2] (setting [8]); 3.00 in assay [2] (setting [9]); 4.57 in assay [5] (1 mg/kg i.p. from 6th week, 8th week). Also, the arthritis index in assay [5] (1 mg/kg i.p. from 6th week, 9th week) turned out to be 1.86; in assay [5] (1 mg/kg i.p. from 6th week, 10th week), 1.86. Further, the “C.I.A. (clinical incidence of arthritis)” value stood at 22.2% in assay [2] (setting [7]); 33.3% in assay [2] (setting [8]); 22.2% in assay [2] (treatment regimen from 6th week, 9th week).

In the case of Histone H2A, the arthritis index in assay [5] (1 mg/kg i.p. 2 times every week from 6th week, 7th week) worked out at 4.80±0.45; in assay [5] (1 mg/kg i.p. from 6th week, after the 9th week), 2.80; in assay [5] (setting [6]), 3.60±0.55.

The record behind these values is patent publication US20030007964A1, “Method for treating rheumatoid arthritis with composition containing histone” (SAMYANG GENEX CORPORATION, priority 1998, published 2003).
